Measured values as given in patent US8614327B2 (Vertex Pharmaceuticals Incorporated, priority 2004, dated 2013).

Target: T1, ΔF508-CFTR (Homo sapiens, UniProt P13569, DEL508-508)
T1 construct: expressed in transfected cells
Assay: Membrane potential optical (FRET/VIPR) assay, identification of potentiator compounds
Format: cell-based
Conditions: Table 3, assay not given; for % Activity: relative efficacy
Procedure, shortened: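 NIH3T3 mouse fibroblasts stably expressing ΔF508-CFTR, temperature-corrected 24 h at 27° C., read on VIPR by FRET between CC2-DMPE and DiSBAC2(3). Potentiators identified in a double-addition format, first adding chloride-free (gluconate) medium with or without compound.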

T1 sequence (P13569 with tags, fused parts or gaps DEL508-508): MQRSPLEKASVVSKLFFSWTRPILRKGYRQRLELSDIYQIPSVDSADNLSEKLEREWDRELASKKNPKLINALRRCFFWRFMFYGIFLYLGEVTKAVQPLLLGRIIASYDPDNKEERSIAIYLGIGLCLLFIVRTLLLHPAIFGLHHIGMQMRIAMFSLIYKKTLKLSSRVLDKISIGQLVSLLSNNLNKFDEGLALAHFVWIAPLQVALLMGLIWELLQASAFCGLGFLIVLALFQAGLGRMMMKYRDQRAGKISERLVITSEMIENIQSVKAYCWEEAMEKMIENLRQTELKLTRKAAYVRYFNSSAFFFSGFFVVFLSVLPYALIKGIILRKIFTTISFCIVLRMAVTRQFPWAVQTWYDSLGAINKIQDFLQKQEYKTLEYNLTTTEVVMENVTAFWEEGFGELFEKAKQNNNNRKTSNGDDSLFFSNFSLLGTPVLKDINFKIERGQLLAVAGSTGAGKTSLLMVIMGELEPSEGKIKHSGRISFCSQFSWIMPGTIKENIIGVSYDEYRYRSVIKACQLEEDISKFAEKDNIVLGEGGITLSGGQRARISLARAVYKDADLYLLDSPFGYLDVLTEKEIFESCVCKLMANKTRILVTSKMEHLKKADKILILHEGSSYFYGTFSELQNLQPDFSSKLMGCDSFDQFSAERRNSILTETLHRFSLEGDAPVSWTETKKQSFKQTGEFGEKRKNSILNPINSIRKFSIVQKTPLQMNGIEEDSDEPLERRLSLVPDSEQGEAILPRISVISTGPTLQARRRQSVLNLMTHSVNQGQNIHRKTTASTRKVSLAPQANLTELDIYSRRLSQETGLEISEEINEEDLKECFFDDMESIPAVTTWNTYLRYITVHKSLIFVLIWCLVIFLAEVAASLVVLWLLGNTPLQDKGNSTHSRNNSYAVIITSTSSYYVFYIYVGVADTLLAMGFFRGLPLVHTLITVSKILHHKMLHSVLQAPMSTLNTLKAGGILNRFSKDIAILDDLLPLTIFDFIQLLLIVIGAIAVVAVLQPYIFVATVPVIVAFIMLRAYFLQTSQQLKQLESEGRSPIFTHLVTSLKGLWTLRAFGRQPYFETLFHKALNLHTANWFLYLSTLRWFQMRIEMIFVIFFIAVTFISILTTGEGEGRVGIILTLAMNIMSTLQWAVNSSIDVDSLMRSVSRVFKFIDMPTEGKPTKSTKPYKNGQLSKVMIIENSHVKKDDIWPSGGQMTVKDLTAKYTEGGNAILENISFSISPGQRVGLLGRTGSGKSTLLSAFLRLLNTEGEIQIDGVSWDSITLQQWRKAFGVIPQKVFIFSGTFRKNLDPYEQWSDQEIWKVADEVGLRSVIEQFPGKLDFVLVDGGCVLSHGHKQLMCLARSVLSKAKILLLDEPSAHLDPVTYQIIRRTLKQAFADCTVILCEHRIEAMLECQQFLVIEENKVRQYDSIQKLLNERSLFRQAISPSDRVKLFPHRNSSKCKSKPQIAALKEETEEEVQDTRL

| Structure (SMILES) | EC50 [µM] | % Activity |
| --- | --- | --- |
| CC(C)c1cccc(-c2ccccc2NC(=O)c2c[nH]c3ccccc3c2=O)c1 [Compound 290, N-[2-(3-isopropylphenyl)phenyl]-4-oxo-1H-quinoline-3-carboxamide] | < 10 | ++ (between 25% to 100%) |
| CC(C)(C)c1cc(Cl)c(NC(=O)c2c[nH]c3ccccc3c2=O)cc1O [Compound 291, N-(2-chloro-5-hydroxy-4-tert-butyl-phenyl)-4-oxo-1H-quinoline-3-carboxamide] | – | ++ (between 25% to 100%) |
| O=C(Nc1cc(Cl)ccc1Oc1ccccc1)c1c[nH]c2ccccc2c1=O [Compound 292, N-(5-chloro-2-phenoxy-phenyl)-4-oxo-1H-quinoline-3-carboxamide] | < 10 | ++ (between 25% to 100%) |
| O=C(Nc1ccccc1-n1cccc1)c1c[nH]c2ccccc2c1=O [Compound 293, 4-oxo-N-[2-(1H-pyrrol-1-yl)phenyl]-1H-quinoline-3-carboxamide] | 10 to 25 | +++ (>100%) |
| O=C(Nc1ccc2[nH]ccc2c1)c1c[nH]c2ccccc2c1=O [Compound 294, N-(1H-indol-5-yl)-4-oxo-1H-quinoline-3-carboxamide] | 10 to 25 | ++ (between 25% to 100%) |
| O=C(Nc1ccccc1N1CCCC1)c1c[nH]c2ccccc2c1=O [Compound 295, 4-oxo-N-(2-pyrrolidin-1-ylphenyl)-1H-quinoline-3-carboxamide] | < 10 | ++ (between 25% to 100%) |
| COc1nc2ccccc2c(OC)c1C(=O)Nc1ccccc1C(C)(C)C [Compound 296, 2,4-dimethoxy-N-(2-tert-butylphenyl)-quinoline-3-carboxamide] | 10 to 25 | ++ (between 25% to 100%) |
| Cc1ccc(C)n1-c1ccccc1NC(=O)c1c[nH]c2ccccc2c1=O [Compound 297, N-[2-(2,5-dimethyl-1H-pyrrol-1-yl)phenyl]-4-oxo-1H-quinoline-3-carboxamide] | < 10 | ++ (between 25% to 100%) |
| CCOC(=O)Nc1cc(NC(=O)c2c[nH]c3ccccc3c2=O)ccc1CC [Compound 298, [2-ethyl-5-[(4-oxo-1H-quinolin-3-yl)carbonylamino]phenyl]aminoformic acid ethyl ester] | – | ++ (between 25% to 100%) |
| O=C(Nc1ccc2c(c1)NCCC2)c1c[nH]c2ccccc2c1=O [Compound 299, 4-Oxo-N-(1,2,3,4-tetrahydroquinolin-7-yl)-1H-quinoline-3-carboxamide] | < 10 | ++ (between 25% to 100%) |
| CC1(C)CCNc2cc(NC(=O)c3c[nH]c4ccccc4c3=O)ccc21 [Compound 300, N-(4,4-Dimethyl-1,2,3,4-tetrahydroquinolin-7-yl)-4-oxo-1H-quinoline-3-carboxamide] | < 10 | ++ (between 25% to 100%) |
| Cn1cnnc1-c1ccc(NC(=O)c2c[nH]c3ccccc3c2=O)cc1 [Compound 301, N-[4-(4-methyl-4H-1,2,4-triazol-3-yl)phenyl]-4-oxo-1H-quinoline-3-carboxamide] | 25 to 60 | + (<25%) |
| O=C(Nc1ccccc1-c1ccc(CO)cc1)c1c[nH]c2ccccc2c1=O [Compound 302, N-[2-[4-(hydroxymethyl)phenyl]phenyl]-4-oxo-1H-quinoline-3-carboxamide] | 10 to 25 | ++ (between 25% to 100%) |
| CC(=O)N1CCc2ccc(NC(=O)c3c[nH]c4ccccc4c3=O)cc2C1 [Compound 303, N-(2-acetyl-1,2,3,4-tetrahydroisoquinolin-7-yl)-4-oxo-1H-quinoline-3-carboxamide] | 10 to 25 | ++ (between 25% to 100%) |
| CCOc1ccccc1-c1ccc(CNC(=O)OC(C)(C)C)cc1NC(=O)c1c[nH]c2ccccc2c1=O [Compound 304, {2′-Ethoxy-2-[(4-oxo-1,4-dihydroquinoline-3-carbonyl)-amino]-biphenyl-4-ylmethyl}-carbamic acid tert-butyl ester] | < 10 | ++ (between 25% to 100%) |
| COc1ccc(-c2ccccc2NC(=O)c2c[nH]c3ccccc3c2=O)cc1 [Compound 305, N-[2-(4-methoxyphenyl)phenyl]-4-oxo-1H-quinoline-3-carboxamide] | < 10 | +++ (>100%) |
| CCOc1cccc(-c2ccccc2NC(=O)c2c[nH]c3ccccc3c2=O)c1 [Compound 306, N-[2-(3-ethoxyphenyl)phenyl]-4-oxo-1H-quinoline-3-carboxamide] | < 10 | +++ (>100%) |
| O=C(Nc1ccccc1-c1cccc(Cl)c1)c1c[nH]c2ccccc2c1=O [Compound 307, N-[2-(3-chlorophenyl)phenyl]-4-oxo-1H-quinoline-3-carboxamide] | < 10 | ++ (between 25% to 100%) |
| N#CCc1ccccc1NC(=O)c1c[nH]c2ccccc2c1=O [Compound 308, N-[2-(cyanomethyl)phenyl]-4-oxo-1H-quinoline-3-carboxamide] | 10 to 25 | ++ (between 25% to 100%) |

| Structure (SMILES) | EC50 [µM] | % Activity |
| --- | --- | --- |
| O=C(Nc1cc2ccccc2cn1)c1c[nH]c2ccccc2c1=O [Compound 309, N-(3-isoquinolyl)-4-oxo-1H-quinoline-3-carboxamide] | 25 to 60 | + (<25%) |
| CCC(C)c1ccc(NC(=O)c2c[nH]c3ccccc3c2=O)cc1 (centres unmarked) [Compound 310, 4-oxo-N-(4-sec-butylphenyl)-1H-quinoline-3-carboxamide] | < 10 | ++ (between 25% to 100%) |
| Cc1ccc(-c2ccccc2NC(=O)c2c[nH]c3ccccc3c2=O)o1 [Compound 311, N-[2-(5-methyl-2-furyl)phenyl]-4-oxo-1H-quinoline-3-carboxamide] | < 10 | ++ (between 25% to 100%) |
| COc1ccc(-c2ccccc2NC(=O)c2c[nH]c3ccccc3c2=O)c(OC)c1 [Compound 312, N-[2-(2,4-dimethoxyphenyl)phenyl]-4-oxo-1H-quinoline-3-carboxamide] | < 10 | ++ (between 25% to 100%) |
| O=C(Nc1ccccc1-c1ccccc1F)c1c[nH]c2ccccc2c1=O [Compound 313, N-[2-(2-fluorophenyl)phenyl]-4-oxo-1H-quinoline-3-carboxamide] | < 10 | ++ (between 25% to 100%) |
| CCc1cccc(C(C)C)c1NC(=O)c1c[nH]c2ccccc2c1=O [Compound 314, N-(2-ethyl-6-isopropyl-phenyl)-4-oxo-1H-quinoline-3-carboxamide] | – | ++ (between 25% to 100%) |
| Cc1cccc(C)c1NC(=O)c1c[nH]c2ccccc2c1=O [Compound 315, N-(2,6-dimethylphenyl)-4-oxo-1H-quinoline-3-carboxamide] | < 10 | ++ (between 25% to 100%) |
| CC(=O)Nc1ccc(C(C)(C)C)c(NC(=O)c2c[nH]c3ccccc3c2=O)c1 [Compound 316, N-(5-acetylamino-2-tert-butyl-phenyl)-4-oxo-1H-quinoline-3-carboxamide] | 10 to 25 | ++ (between 25% to 100%) |
| O=C(Nc1c(Cl)cccc1Cl)c1c[nH]c2ccccc2c1=O [Compound 317, N-(2,6-dichlorophenyl)-4-oxo-1H-quinoline-3-carboxamide] | < 10 | ++ (between 25% to 100%) |
| O=C(Nc1cc(NS(=O)(=O)CCN2CCCCC2)cc(C(F)(F)F)c1)c1c[nH]c2ccccc2c1=O [Compound 318, 4-Oxo-N-[3-[2-(1-piperidyl)ethylsulfonylamino]-5-(trifluoromethyl)phenyl]-1H-quinoline-3-carboxamide] | 10 to 25 | ++ (between 25% to 100%) |
| CC(C)(C)c1cc(F)c(NC(=O)c2c[nH]c3ccc(F)cc3c2=O)cc1O [Compound 319, 6-fluoro-N-(2-fluoro-5-hydroxy-4-tert-butyl-phenyl)-4-oxo-1H-quinoline-3-carboxamide] | < 10 | ++ (between 25% to 100%) |
| CC(C)(C)c1cc2ccc(NC(=O)c3c[nH]c4ccccc4c3=O)cc2[nH]1 [Compound 320, 4-oxo-N-(2-tert-butyl-1H-indol-6-yl)-1H-quinoline-3-carboxamide] | < 10 | ++ (between 25% to 100%) |
| O=C(Nc1ccccc1N1CCN(C(=O)c2ccccc2)CC1)c1c[nH]c2ccccc2c1=O [Compound 321, N-[2-(4-benzoylpiperazin-1-yl)phenyl]-4-oxo-1H-quinoline-3-carboxamide] | < 10 | ++ (between 25% to 100%) |
| CCc1cccc(C(C)CC)c1NC(=O)c1c[nH]c2ccccc2c1=O (centres unmarked) [Compound 322, N-(2-ethyl-6-sec-butyl-phenyl)-4-oxo-1H-quinoline-3-carboxamide] | < 10 | ++ (between 25% to 100%) |
| COC(=O)NCC(C)(C)c1ccc(NC(=O)c2c[nH]c3ccccc3c2=O)cc1 [Compound 323, [2-Methyl-2-[4-[(4-oxo-1H-quinolin-3-yl)carbonylamino]phenyl]-propyl]aminoformic acid methyl ester] | < 10 | ++ (between 25% to 100%) |
| CCCCc1ccc(NC(=O)c2c[nH]c3ccccc3c2=O)cc1 [Compound 324, N-(4-butylphenyl)-4-oxo-1H-quinoline-3-carboxamide] | < 10 | ++ (between 25% to 100%) |
| CCc1cccc(CC)c1NC(=O)c1c[nH]c2ccccc2c1=O [Compound 325, N-(2,6-diethylphenyl)-4-oxo-1H-quinoline-3-carboxamide] | < 10 | ++ (between 25% to 100%) |
| CS(=O)(=O)c1ccc(-c2ccccc2NC(=O)c2c[nH]c3ccccc3c2=O)cc1 [Compound 326, N-[2-(4-methylsulfonylphenyl)phenyl]-4-oxo-1H-quinoline-3-carboxamide] | 10 to 25 | ++ (between 25% to 100%) |
